Assays:
[1] = target: T1, Prostaglandin E synthase (Homo sapiens, UniProt O14684); assay: Inhibition of purified mPGES-1 (1 to 152) (unknown origin) extracted from detergent-solubilized baculovirus-infected insect Sf9 cell membranes using PGH2 as substrate assessed as PGE2 production after 2.5 mins by LC/MS analysis
T1 sequence (O14684 whole entry): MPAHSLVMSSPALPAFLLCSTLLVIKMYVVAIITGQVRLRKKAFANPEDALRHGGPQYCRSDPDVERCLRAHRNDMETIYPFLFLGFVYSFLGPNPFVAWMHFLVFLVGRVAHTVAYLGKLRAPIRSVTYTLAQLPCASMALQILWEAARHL

[2] = target: T2, Prostaglandin E synthase (Homo sapiens) (UniProt O14684); assay: Binding affinity to mPGES-1 (unknown origin) assessed as increase in protein aggregation temperature at 0.1 mM by differential static light scattering method
T2 sequence (whole entry): T1 sequence (O14684 whole entry)

[3] = target: T1, Prostaglandin E synthase; assay: Inhibition of recombinant human mPGES-1 expressed in human 293E cell microsomes using PGH2 as substrate assessed as PGE2 production after 2.5 mins by LC/MS analysis

Structure (SMILES) | IC50 [1] [nM] | deltaT [2] [°C] | IC50 [3] [nM]
CC(C)Oc1ccc(-n2c(C(=O)O)cc3cc(-c4ccc(C(C)(C)C)cc4)ccc32)cc1 | 2580 | 7.3 | 216
Fc1cccc(Cl)c1-c1nc(-c2ccc(C#Cc3ccc(C(F)(F)F)cc3)nc2)c(Br)[nH]1 | 3940 | 7.8 | 7

Reference: ChEMBL document CHEMBL3576807, “Crystal Structures of mPGES-1 Inhibitor Complexes Form a Basis for the Rational Design of Potent Analgesic and Anti-Inflammatory Therapeutics” (J Med Chem, 2015)
